According to patent US11214594B2, “Antimicrobial peptide having synergistic antibacterial effect with antibiotics on multidrug resistant bacteria, and use thereof” (priority 2016, dated 2022):
≈ marks a conversion by molar mass, not a printed value. Where “and” joins values, the source holds several entries; their conditions need not be identical. Equal values may be shown once. Read-outs that look alike come from different tables or passages of the source. Where a SMILES comes first, the peptide text is derived from it.

Columns and labels:
[1] = tested on: E. coli; type: cell-based, Escherichia coli; details: E. coli
Procedure: (§1) Specifically, the strains described in [Table 2] were prepared and diluted with an MH medium such that the number of bacteria was 2×10^6 colony-forming units (CFUs) per 1 ml, 100 μl of the diluted strains was each aliquoted into a 96-well microtiter plate, and then 50 μl of a peptide solution diluted with the MH medium from the MIC value (solution diluted stepwise at 2: 1) was added to each well. Thereafter, the MIC value of each mixed solution was determined by diluting the antibiotic solution with the MH medium, adding 50 μl of the diluted solution to each well, and performing an experiment even under a reversed condition.

[2] = tested on: MDREC 1229; type: cell-based, Escherichia coli
Procedure: as §1

[3] = tested on: E. coli; assay: MIC of antibiotic during combined treatment with antimicrobial peptide; type: cell-based, Escherichia coli; details: E. coli
Procedure, shortened: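 Read-out is the MIC of each combined solution, obtained from MH-medium dilutions of antibiotic added well by well, with a reversed-condition run as well.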

[4] = tested on: A. baumannii; assay: as above; type: cell-based, Acinetobacter baumannii; details: A. baumannii
Procedure: Thereafter, the MIC value of each mixed solution was determined by diluting the antibiotic solution with the MH medium, adding 50 μl of the diluted solution to each well, and performing an experiment even under a reversed condition.

[5] = tested on: MDRAB 12036; type: cell-based, Acinetobacter baumannii
Procedure: (§2) For the antibacterial activity, a minimal inhibitory concentration (MIC) of a peptide in which fungus bodies were not split in an MH medium with sufficient nutrients was measured.
(§3) Specifically, the strains described in the following [Table 2] were purchased and diluted with an MH medium such that the number of bacteria was 2×10^6 colony-forming units (CFUs), 100 μl of each of the diluted strains was aliquoted into a 96-well microtiter plate, and then 100 μl of a peptide solution diluted with the MH medium (solution diluted stepwise at 2: 1) was added to each well.

[6] = tested on: MDRST 8007; assay: Minimal inhibitory concentration (MIC), single agent; type: cell-based, Salmonella typhimurium; details: agent alone
Procedure: as §2, §3

[7] = with Erythromycin […] (Conc./MIC 1)
[8] = combined with peptide at 1 μg/ml
[9] = combined with peptide at 2 μg/ml
[10] = combined with peptide at 4 μg/ml
[11] = combined with peptide at 6 μg/ml
[12] = combined with peptide at 8 μg/ml
[13] = combined with peptide at 16 μg/ml
[14] = combined with peptide at 32 μg/ml
[15] = combined with peptide at 64 μg/ml

For `CC[C@H](C)[C@H](NC(=O)[C@H](CCCCN)NC(=O)[C@H](Cc1c[nH]c2ccccc12)NC(=O)[C@@H](N)CCCNC(=N)N)C(=O)N[C@@H](Cc1ccccc1)C(=O)N[C@@H](CCCCN)C(=O)N[C@@H](CCCCN)C(=O)N[C@H](C(=O)N1CCC[C@H]1C(=O)N[C@@H](CCCCN)C(=O)N[C@@H](Cc1ccccc1)C(=O)N[C@@H](CC(C)C)C(=O)N[C@@H](Cc1c[nH]cn1)C(=O)N[C@@H](CO)C(=O)N[C@@H](C)C(=O)N[C@@H](CCCCN)C(=O)N[C@@H](CCCCN)C(=O)N[C@@H](Cc1ccccc1)C(N)=O)[C@@H](C)CC` [PapMA-1, RWK IFK KIP KFL HSA KKF-NH2] (H-RWKIFKKIPKFLHSAKKF-NH2; N-terminus assumed), the “Peptide MIC” value [1, 7] was 0 µg/mL, the “Peptide MIC” value ([1]; with Linezolid […] (Conc./MIC 1)) was 0 µg/mL and the “Peptide MIC” value ([1]; with Vancomycin 1024 μg/ml (Conc./MIC 1)) was 0 µg/mL. For the same molecule, the “Peptide MIC during treatment with antibiotic” value (“Peptide MIC during treatment” below) ([2]; erythromycin 32 μg/ml (Conc./MIC 1/8)) was 2 µg/mL, the “Peptide MIC during treatment” value ([2]; erythromycin 64 μg/ml (Conc./MIC 1/4)) was 1 µg/mL and 2 µg/mL and the “Peptide MIC during treatment” value ([2]; erythromycin […] (Conc./MIC 1)) was 0 µg/mL. For the same molecule, the “Peptide MIC during treatment” value ([2]; erythromycin […] (Conc./MIC 1/2)) was 1 µg/mL, the “Peptide MIC during treatment” value ([2]; linezolid 64 μg/ml (Conc./MIC 1/8)) was 2 µg/mL and 4 µg/mL and the “Peptide MIC during treatment” value ([2]; linezolid 512 μg/ml (Conc./MIC 1)) was 0 µg/mL. For the same molecule, the “Peptide MIC during treatment” value ([2]; linezolid […] (Conc./MIC 1/2)) was 1 µg/mL, the “Peptide MIC during treatment” value ([2]; linezolid […] (Conc./MIC 1/4)) was 2 µg/mL and the “Peptide MIC during treatment” value ([2]; vancomycin 512 μg/ml (Conc./MIC 1/2)) was 2 µg/mL. The “Peptide MIC during treatment” value ([2]; vancomycin 1024 μg/ml (Conc./MIC 1)) was 1 µg/mL, the “Peptide MIC during treatment” value ([2]; vancomycin […] (Conc./MIC 1/4)) was 4 µg/mL and the “Peptide MIC during treatment” value ([2]; vancomycin […] (Conc./MIC 1/8)) was 8 µg/mL. The “Peptide MIC” value [2, 7] was 0 µg/mL, the “Peptide MIC” value ([2]; with Linezolid 512 μg/ml (Conc./MIC 1)) was 0 µg/mL and the “Antibiotic MIC, Erythromycin” value ([3]; erythromycin combined with peptide at 1 μg/ml) was 64 µg/mL. For the same molecule, the “Antibiotic MIC, Erythromycin” value ([3]; erythromycin combined with peptide at 2 μg/ml) was 32 µg/mL, the “Antibiotic MIC, Erythromycin” value ([3]; erythromycin combined with peptide at 4 μg/ml) was 16 µg/mL and the “Antibiotic MIC, Erythromycin” value ([3]; erythromycin combined with peptide at 6 μg/ml) was 4 µg/mL. For the same molecule, the “Antibiotic MIC, Erythromycin” value ([3]; erythromycin combined with peptide at 8 μg/ml) was 2 µg/mL, the “Antibiotic MIC, Erythromycin” value ([3]; erythromycin combined with peptide at 16 μg/ml) was 0.5 µg/mL and the “Antibiotic MIC, Erythromycin” value ([3]; erythromycin combined with peptide at 32 μg/ml) was 0.125 µg/mL. The “Antibiotic MIC, Erythromycin” value ([3]; erythromycin combined with peptide at 64 μg/ml) was 0 µg/mL, the “Antibiotic MIC, Linezolid” value ([3]; linezolid combined with peptide at 1 μg/ml) was 128 µg/mL and the “Antibiotic MIC, Linezolid” value ([3]; linezolid combined with peptide at 2 μg/ml) was 128 µg/mL. The “Antibiotic MIC, Linezolid” value ([3]; linezolid combined with peptide at 4 μg/ml) was 64 µg/mL, the “Antibiotic MIC, Linezolid” value ([3]; linezolid combined with peptide at 6 μg/ml) was 16 µg/mL and the “Antibiotic MIC, Linezolid” value ([3]; linezolid combined with peptide at 8 μg/ml) was 16 µg/mL. For the same molecule, the “Antibiotic MIC, Linezolid” value ([3]; linezolid combined with peptide at 16 μg/ml) was 16 µg/mL, the “Antibiotic MIC, Linezolid” value ([3]; linezolid combined with peptide at 32 μg/ml) was 8 µg/mL and the “Antibiotic MIC, Linezolid” value ([3]; linezolid combined with peptide at 64 μg/ml) was 0 µg/mL. The “Antibiotic MIC, Vancomycin” value ([3]; vancomycin combined with peptide at 1 μg/ml) was over 128 µg/mL, the “Antibiotic MIC, Vancomycin” value ([3]; vancomycin combined with peptide at 2 μg/ml) was over 128 µg/mL and the “Antibiotic MIC, Vancomycin” value ([3]; vancomycin combined with peptide at 4 μg/ml) was over 128 µg/mL. The “Antibiotic MIC, Vancomycin” value ([3]; vancomycin combined with peptide at 6 μg/ml) was 32 µg/mL, the “Antibiotic MIC, Vancomycin” value ([3]; vancomycin combined with peptide at 8 μg/ml) was 32 µg/mL and the “Antibiotic MIC, Vancomycin” value ([3]; vancomycin combined with peptide at 16 μg/ml) was 16 µg/mL. The “Antibiotic MIC, Vancomycin” value ([3]; vancomycin combined with peptide at 32 μg/ml) was 4 µg/mL, the “Antibiotic MIC, Vancomycin” value ([3]; vancomycin combined with peptide at 64 μg/ml) was 0 µg/mL and the “Antibiotic MIC, Erythromycin” value [4, 8] was 32 µg/mL. For the same molecule, the “Antibiotic MIC, Linezolid” value [4, 8] was over 128 µg/mL, the “Antibiotic MIC, Vancomycin” value [4, 8] was over 128 µg/mL and the “Antibiotic MIC, Erythromycin” value [4, 9] was 16 µg/mL. For the same molecule, the “Antibiotic MIC, Linezolid” value [4, 9] was 128 µg/mL, the “Antibiotic MIC, Vancomycin” value [4, 9] was 128 µg/mL and the “Antibiotic MIC, Erythromycin” value [4, 10] was 8 µg/mL. For the same molecule, the “Antibiotic MIC, Linezolid” value [4, 10] was 32 µg/mL, the “Antibiotic MIC, Vancomycin” value [4, 10] was 32 µg/mL and the “Antibiotic MIC, Erythromycin” value [4, 11] was 2 µg/mL. The “Antibiotic MIC, Linezolid” value [4, 11] was 32 µg/mL, the “Antibiotic MIC, Vancomycin” value [4, 11] was 16 µg/mL and the “Antibiotic MIC, Erythromycin” value [4, 12] was 0.5 µg/mL. For the same molecule, the “Antibiotic MIC, Linezolid” value [4, 12] was 8 µg/mL, the “Antibiotic MIC, Vancomycin” value [4, 12] was 8 µg/mL and the “Antibiotic MIC, Erythromycin” value [4, 13] was 0.125 µg/mL. The “Antibiotic MIC, Linezolid” value [4, 13] was 4 µg/mL, the “Antibiotic MIC, Vancomycin” value [4, 13] was 8 µg/mL and the “Antibiotic MIC, Erythromycin” value [4, 14] was 0.0625 µg/mL. For the same molecule, the “Antibiotic MIC, Linezolid” value [4, 14] was 4 µg/mL, the “Antibiotic MIC, Vancomycin” value [4, 14] was 2 µg/mL and the “Antibiotic MIC, Erythromycin” value [4, 15] was 0 µg/mL. The “Antibiotic MIC, Linezolid” value [4, 15] was 0 µg/mL, the “Antibiotic MIC, Vancomycin” value [4, 15] was 0 µg/mL and the “Minimal inhibitory concentration MIC” value [5] was 64 µg/mL (≈ 27.8 µM). The “Minimal inhibitory concentration MIC” value [6] was 64 µg/mL (≈ 27.8 µM).
